Results as given in US12486471B2, “Perfume formulation for delivery system” (FIRMENICH SA, priority 2019, dated 2025).

Test: Odor threshold concentration (Log T / Log ODT) by gas chromatograph sniff port with panelists
Set-up: species or system human
Method: “High impact perfume raw materials” should be understood as perfume raw materials having a Log T<−4. The odor threshold concentration of a chemical compound is determined in part by its shape, polarity, partial charges and molecular mass. For convenience, the threshold concentration is presented as the common logarithm of the threshold concentration, i.e., Log [Threshold] (“Log T”).
The odor threshold concentration of a perfuming compound is determined by using a gas chromatograph (“GC”). Specifically, the gas chromatograph is calibrated to determine the exact volume of the perfume oil ingredient injected by the syringe, the precise split ratio, and the hydrocarbon response using a hydrocarbon standard of known concentration and chain-length distribution. The air flow rate is accurately measured and, assuming the duration of a human inhalation to last 12 seconds, the sampled volume is calculated. […] To determine the threshold concentration, solutions are delivered to the sniff port at the back-calculated concentration. A panelist sniffs the GC effluent and identifies the retention time when odor is noticed. The average across all panelists determines the odor threshold concentration of the perfuming compound. The determination of odor threshold is described in more detail in C.

[1] = ingredient of Perfume oil B (Table 3)
[2] = ingredient of Perfume oil C (Table 5)
[3] = ingredient of Perfume oil D (Table 7)
[4] = ingredient of Perfume oil A (Table 1)

Molecule | Log ODT [1] | Log ODT [2] | Log ODT [3] | Log ODT [4]
CC1=CCC(C(C)(C)S)CC1 (racemic) [(+−)-2-(4-METHYL-3-CYCLOHEXEN-1-YL)-2-PROPANETHIOL] | <−4 | <−4 | – | –
COc1ccc2ccccc2c1 [2-METHOXYNAPHTHALENE] | – | <−4 | <−4 | –
C=CC(C)CCCC(C)(C)O (racemic) | – | – | – | >−4
CCOC(=O)C(C)CC (racemic) [(+−)-ETHYL 2-METHYLBUTANOATE] | – | – | – | >−4
CC12CCC(CC1)C(C)(C)O2 | >−4 | >−4 | >−4 | –
3,5,6-TRIMETHYL-3-CYCLOHEXENE-1-CARBALDEHYDE (A) + 2,4,6-TRIMETHYL-3-CYCLOHEXENE-1-CARBALDEHYDE (B) | – | >−4 | – | –
2-METHYLBUTYL SALICYLATE (A) + PENTYL SALICYLATE (B) | – | – | – | >−4
C=CCCC(=O)C1=CCCC(C)(C)C1 | <−4 | <−4 | – | –
CCCCCCCC=O [OCTANAL] | – | – | >−4 | –
CC(=O)/C=C/C1=C(C)CCCC1(C)C | – | – | – | <−4
CCCCCCCCCC(C)C=O (racemic) [(+−)-2-METHYLUNDECANAL] | <−4 | <−4 | <−4 | <−4
.ALPHA.-DIHYDROTERPINEOL (A) + BETA.-DIHYDROTERPINEOL (B) | >−4 | – | – | –
C=CC(C)(CCC=C(C)C)OC(C)=O (racemic) [(+−)-1,5-DIMETHYL-1-VINYL-4-HEXENYL ACETATE] | – | >−4 | – | >−4
CC1=CCC2C[C@@H]1C2(C)C (single isomer, unassigned; (-)) | – | >−4 | – | –
(1RS,2RS)-2,4-DIMETHYL-3-CYCLOHEXENE-1-CARBALDEHYDE (A) + (1RS,2SR)-2,4-DIMETHYL-3-CYCLOHEXENE-1-CARBALDEHYDE (B) | – | >−4 | – | >−4
CC1=CC2CC(C=O)C1CC2C(C)C (centres unmarked) [8-ISOPROPYL-6-METHYL-BICYCLO[2.2.2]OCT-5-ENE-2-CARBALDEHYDE] | <−4 | – | <−4 | –
CC(C)CCCC(C)CCO (racemic) | >−4 | – | – | –
CC(=O)OCCc1ccccc1 [2-PHENYLETHYL ACETATE] | – | – | – | >−4
CCCCCCCCCC(C)=O [Capsule 2-UNDECANONE, 2-UNDECANONE] | >−4 | – | – | –
10-UNDECENAL (A) + (9E)-9-UNDECENAL (B) + (9Z)-9-UNDECENAL (C) | <−4 | <−4 | – | –
(+−)-(3E)-3-METHYL-4-(2,6,6-TRIMETHYL-2-CYCLOHEXEN-1-YL)-3-BUTEN-2-ONE (A) + (+−)-(1E)-1-(2,6,6-TRIMETHYL-2-CYCLOHEXEN-1-YL)-1-PENTEN-3-ONE (B) | – | <−4 | – | –
COc1nccnc1CCCC(C)C | <−4 | – | – | –
(+−)-4-METHYLENE-2-PHENYLTETRAHYDRO-2H-PYRAN (A) + (+−)-4-METHYL-6-PHENYL-3,6-DIHYDRO-2H-PYRAN (B) + (+−)-4-METHYL-2-PHENYL-3,6-DIHYDRO-2H-PYRAN (C) | <−4 | – | <−4 | –
CCCCCCOC(C)=O [HEXYL ACETATE] | – | – | – | >−4
CC/C=C\CCOC(=O)C(C)C [(Z)-3-HEXENYL ISOBUTYRATE] | – | >−4 | – | –

Molecule | Log ODT [1] | Log ODT [2] | Log ODT [3] | Log ODT [4]
CC(=O)O[C@@H]1CC2CC[C@]1(C)C2(C)C [(1R,2R)-1,7,7-TRIMETHYL-BICYCLO[2.2.1]HEPT-2-YL ACETATE] | – | >−4 | >−4 | –
CCCCCCCC1CCC(=O)O1 (racemic) [(+−)-5-HEPTYLDIHYDRO-2(3H)-FURANONE] | – | <−4 | – | –
CCCCCCCCCC=O [DECANAL] | – | – | >−4 | –
O=C1CCCCCCCCCCCCCCO1 [OXACYCLOHEXADECAN-2-ONE] | – | >−4 | – | –
3-(4-ETHYLPHENYL)-2,2-DIMETHYLPROPANAL (A) + 3-(2-ETHYLPHENYL)-2,2-DIMETHYLPROPANAL (B) | >−4 | – | – | –
CCCCC[C@H]1C(=O)CC[C@@H]1CC(=O)OC (racemic) [METHYL 2-((1RS,2RS)-3-OXO-2-PENTYLCYCLOPENTYL)ACETATE] | – | >−4 | – | >−4
(+)-(3S)-3-[(1R)-4-METHYL-3-CYCLOHEXEN-1-YL]BUTANAL (A) + (+)-(3R)-3-[(1R)-4-METHYL-3-CYCLOHEXEN-1-YL]BUTANAL | – | – | >−4 | –
c1ccc(Oc2ccccc2)cc1 [1,1′-OXYDIBENZENE] | – | – | – | >−4
CC1(C)CC=C(CCC=O)CC1 | – | – | – | >−4
CCCCCCOC(=O)c1ccccc1O [HEXYL 2-HYDROXYBENZOATE] | – | – | – | >−4
COc1ccc(C)cc1 [1-METHOXY-4-METHYLBENZENE] | – | – | – | >−4
(2Z)-1,1-DIETHOXY-3,7-DIMETHYL-2,6-OCTADIENE (A) + (2E)-1,1-DIETHOXY-3,7-DIMETHYL-2,6-OCTADIENE (B) | >−4 | – | >−4 | –
C/C=C/C(=O)[C@@H]1[C@@H](C)C=CCC1(C)C (racemic) | <−4 | – | – | <−4
COCCc1ccccc1 [(2-METHOXYETHYL)BENZENE] | >−4 | – | – | –
TRICYCLO[5.2.1.0~2,6~]DEC-3-EN-8-YL ACETATE (A) + TRICYCLO[5.2.1.0~2,6~]DEC-4-EN-8-YL ACETATE (B) | >−4 | – | – | >−4
CC(C)=CCCC(C)C=O (racemic) | >−4 | – | – | >−4
3,7-DIMETHYL-2,6-NONADIENENITRILE (A) + 3,7-DIMETHYL-3,6-NONADIENENITRILE (B) | – | >−4 | – | –
CC/C=C(\C)C(O)CCCCC (racemic) [(+−)-(E)-4-METHYL-3-DECEN-5-OL] | >−4 | – | – | >−4
CC(C)c1cccc(C(C)CC=O)c1 (racemic) [(+−)-3-(3-ISOPROPYL-1-PHENYL)BUTANAL] | <−4 | – | – | –
CC/C=C\CCOC(C)=O [(Z)-3-HEXENYL ACETATE] | – | >−4 | – | –
CC1(C)CCC[C@]2(C)[C@H]3CCO[C@]3(C)CC[C@@H]12 [(−)-(3AR,5AS,9AS,9BR)-3A,6,6,9A-TETRAMETHYLDODECAHYDRONAPHTHO[2,1-B]FURAN] | <−4 | – | <−4 | –
1-OXA-12-CYCLOHEXADECEN-2-ONE (A) + 1-OXA-13-CYCLOHEXADECEN-2-ONE (B) | – | >−4 | – | –
CC(=O)OCCC(C)CCC=C(C)C (centres unmarked) [37-DIMETHYL-6-OCTENYL ACETATE] | – | >−4 | – | –
(2RS,4SR)-4-METHYL-2-(2-METHYL-1-PROPEN-1-YL)TETRAHYDRO-2H-PYRAN (A) + (2RS,4RS)-4-METHYL-2-(2-METHYL-1-PROPEN-1-YL)TETRAHYDRO-2H-PYRAN (B) | >−4 | – | – | >−4
